Our source for the GI50 and Ki values is patent publication US11596639B2, “Substituted indole Mcl-1 inhibitors” (Vanderbilt University, priority 2016, dated 2023).

Test [1] has as its system H929 human cancer cell lines. Kind of test: Cellular viability / proliferation (Cell TiterGlo, 72 h). The test is classed as cell-based. The essentials:
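H929 cells plated at 1,000/well in 10% FBS medium received a 2-fold serial compound dilution (top 50 μM, DMSO <1%) 24 h later. After 72 h, viability was read by CellTiter-Glo luminescence. IC50 came from a four-parameter fit.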
In general terms: Cellular ATP, detected with luciferase, serves as a proxy for viable cell number.

For another test, the target named is Mcl-1 (Homo sapiens (Human), UniProt Q07820). Kind of test: TR-FRET binding assay, FITC-Bak peptide and MBP-tagged Mcl-1. To be noted: read-out: Ki for Inhibition of Mcl-1 by TR-FRET assay. The procedure:
Compounds are diluted in DMSO in a 16-point, semilog serial dilution scheme. […] The plate was mixed and incubated for 3 hours at room temperature. […] TR-FRET signal is plotted and IC50 and Ki values are calculated in the same manner as the fluorescence polarization anisotropy based competition assays.
(TR-FRET usually uses a lanthanide donor and a delayed reading to cut background.)

Setting [2] is: Homo sapiens, NCI-H929, 72 h, read-out: GI50 on cellular proliferation of H929 human cancer cell lines, H929 cells, 72 h, Cell TiterGlo, 10% FBS.
Where [3] appears, read: read-out: GI50 on cellular proliferation of H929 human cancer cell lines, H929 cells, 72 h, Cell TiterGlo, 10% FBS.

Molecules are shown by their SMILES. Where two headings read alike, the source gives them in different places.

Usually Ki stands for a measure of affinity in units of concentration, obtained from inhibition or displacement.

Mcl-1, sequence (Q07820 172-327): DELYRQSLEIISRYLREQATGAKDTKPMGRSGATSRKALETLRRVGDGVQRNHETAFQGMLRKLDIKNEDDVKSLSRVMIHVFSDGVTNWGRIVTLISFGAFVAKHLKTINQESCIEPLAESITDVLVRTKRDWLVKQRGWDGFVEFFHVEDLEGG

As for `Cc1cccc(Cn2cc(C(=O)O)c3cccc(N4C[C@@H](C)n5c(c(CCCOc6cc(C)c(Cl)c(C)c6)c6ccc(Cl)c(-c7c(C)nn(C)c7C)c65)C4=O)c32)n1` (single isomer, unassigned) [Example 491], the GI50 in test [1] (setting [2]) came out at 280 nM. Also, on Mcl-1, the Ki is less than 0.2 nM. `Cc1cccc(Cn2cc(C(=O)O)c3cccc(N4C[C@@H](C)n5c(c(CCCOc6cc(C)c(Cl)c(C)c6)c6ccc(Cl)c(-c7c(C)nn(C)c7C)c65)C4=O)c32)n1` (single isomer, unassigned) [Example 494]: the GI50 in test [1] (setting [3]) came out at 450 nM. For the same compound, the Ki on Mcl-1 amounted to 0.3 nM. Consider `Cc1ccc(Cn2cc(C(=O)O)c3cccc(N4C[C@@H](C)n5c(c(CCCOc6cc(C)c(Cl)c(C)c6)c6ccc(Cl)c(-c7c(C)nn(C)c7C)c65)C4=O)c32)nc1` (single isomer, unassigned) [Example 501], for which, in test [1] (setting [2]), the GI50 came out at 1200 nM. Also, the Ki at Mcl-1 was 0.68 nM. In the case of `Cc1ccc(Cn2cc(C(=O)O)c3cccc(N4C[C@@H](C)n5c(c(CCCOc6cc(C)c(Cl)c(C)c6)c6ccc(Cl)c(-c7c(C)nn(C)c7C)c65)C4=O)c32)nc1` (single isomer, unassigned) [Example 507], the GI50 in test [1] (setting [3]) turned out to be 1400 nM. The Ki on Mcl-1 worked out at 0.72 nM. The like results for `COCCn1cc(C(=O)O)c2cc(OC)cc(N3C[C@@H](C)n4c(c(CCCOc5cc(C)c(Cl)c(C)c5)c5ccc(Cl)c(-c6c(C)nn(C)c6C)c54)C3=O)c21` (single isomer, unassigned) [Example 672] were, in that order, 840 nM and 0.43 nM. Take `COCCn1cc(C(=O)O)c2cc(OC)cc(N3C[C@@H](C)n4c(c(CCCOc5cc(C)c(Cl)c(C)c5)c5ccc(Cl)c(-c6c(C)nn(C)c6C)c54)C3=O)c21` (single isomer, unassigned) [Example 673]: the GI50 in test [1] (setting [3]) is 230 nM. At Mcl-1, the Ki amounted to 0.31 nM. As for `COc1ccnc(Cn2c(C(=O)O)cc3c(OC)ccc(N4C[C@@H](C)n5c(c(CCCOc6cc(C)c(Cl)c(C)c6)c6ccc(Cl)c(-c7c(C)ncnc7C)c65)C4=O)c32)c1` [Example 476, (R)-7-(7-Chloro-10-(3-(4-chloro-3,5-dimethylphenoxy)propyl)-6-(4,6-dimethylpyrimidin-5-yl)-4-methyl-1-oxo-3,4-dihydropyrazino[1,2-a]indol-2(1H)-yl)-4-methoxy-1-((4-methoxypyridin-2-yl)methyl)-1H-indole-2-carboxylic acid], the GI50 in test [1] (setting [2]) was less than 200 nM. Moreover, on Mcl-1, the Ki is less than 0.2 nM. The like results for `COc1ccc(N2C[C@@H](C)n3c(c(CCCOc4cc(C)c(Cl)c(C)c4)c4ccc(Cl)c(-c5c(C)ncnc5C)c43)C2=O)c2c1cc(C(=O)O)n2Cc1cccc(C)n1` [Example 477, (R)-7-(7-Chloro-10-(3-(4-chloro-3,5-dimethylphenoxy)propyl)-6-(4,6-dimethylpyrimidin-5-yl)-4-methyl-1-oxo-3,4-dihydropyrazino[1,2-a]indol-2(1H)-yl)-4-methoxy-1-((6-methylpyridin-2-yl)methyl)-1H-indole-2-carboxylic acid] were, in that order, less than 200 nM and less than 0.2 nM. For `COc1ccc(N2C[C@@H](C)n3c(c(CCCOc4cc(C)c(Cl)c(C)c4)c4ccc(Cl)c(-c5c(C)ncnc5C)c43)C2=O)c2c1cc(C(=O)O)n2Cc1ccc(C)cn1` [Example 478, (R)-7-(7-Chloro-10-(3-(4-chloro-3,5-dimethylphenoxy)propyl)-6-(4,6-dimethylpyrimidin-5-yl)-4-methyl-1-oxo-3,4-dihydropyrazino[1,2-a]indol-2(1H)-yl)-4-methoxy-1-((5-methylpyridin-2-yl)methyl)-1H-indole-2-carboxylic acid] the same measures were 560 nM and 0.24 nM. Take `Cc1cc(OCCCc2c3n(c4c(-c5c(C)nn(C)c5C)c(Cl)ccc24)[C@H](C)CN(c2cc(OC(F)(F)F)cc4cc(C(=O)O)n(C)c24)C3=O)cc(C)c1Cl` [Example 479, (R)-7-(7-chloro-10-(3-(4-chloro-3,5-dimethylphenoxy)propyl)-4-methyl-1-oxo-6-(1,3,5-trimethyl-1H-pyrazol-4-yl)-3,4-dihydropyrazino[1,2-a]indol-2(1H)-yl)-1-methyl-5-(trifluoromethoxy)-1H-indole-2-carboxylic acid]: in test [1] (setting [2]), the GI50 turned out to be 1500 nM. The Ki at Mcl-1 turned out to be 0.95 nM. For `Cc1ccnc(Cn2cc(C(=O)O)c3cccc(N4C[C@@H](C)n5c(c(CCCOc6cc(C)c(Cl)c(C)c6)c6ccc(Cl)c(-c7c(C)nn(C)c7C)c65)C4=O)c32)c1` [Example 480, (R)-7-(7-Chloro-10-(3-(4-chloro-3,5-dimethylphenoxy)propyl)-4-methyl-1-oxo-6-(1,3,5-trimethyl-1H-pyrazol-4-yl)-3,4-dihydropyrazino[1,2-a]indol-2(1H)-yl)-1-((4-methylpyridin-2-yl)methyl)-1H-indole-3-carboxylic acid] the same measures were 250 nM and less than 0.2 nM.

As for `Cc1cc(OCCCc2c3n(c4c(-c5c(C)nn(C)c5C)c(Cl)ccc24)[C@H](C)CN(c2cc(OCc4ccccn4)cc4cc(C(=O)O)n(C)c24)C3=O)cc(C)c1Cl` [Example 481, (R)-7-(7-Chloro-10-(3-(4-chloro-3,5-dimethylphenoxy)propyl)-4-methyl-1-oxo-6-(1,3,5-trimethyl-1H-pyrazol-4-yl)-3,4-dihydropyrazino[1,2-a]indol-2(1H)-yl)-1-methyl-5-(pyridin-2-ylmethoxy)-1H-indole-2-carboxylic acid], the GI50 in test [1] (setting [2]) is 240 nM. Moreover, on Mcl-1, the Ki was less than 0.2 nM. For the compound `COc1ccc(N2C[C@@H](C)n3c(c(CCCOc4cc(C)c(Cl)c(C)c4)c4ccc(Cl)c(-c5c(C)nc(CN(C)C)nc5C)c43)C2=O)c2c1cc(C(=O)O)n2Cc1ccccn1` [Example 482, (R)-7-(7-Chloro-10-(3-(4-chloro-3,5-dimethylphenoxy)propyl)-6-(2-((dimethylamino)methyl)-4,6-dimethylpyrimidin-5-yl)-4-methyl-1-oxo-3,4-dihydropyrazino[1,2-a]indol-2(1H)-yl)-4-methoxy-1-(pyridin-2-ylmethyl)-1H-indole-2-carboxylic acid], in test [1] (setting [2]), the GI50 was determined as 340 nM. Besides, at Mcl-1, the Ki was less than 0.2 nM. For `COc1ccc(N2C[C@@H](C)n3c(c(CCCOc4cc(C)c(Cl)c(C)c4)c4ccc(Cl)c(-c5c(C)nc(CN(C)C)nc5C)c43)C2=O)c2c1cc(C(=O)O)n2C` [Example 483, (R)-7-(7-Chloro-10-(3-(4-chloro-3,5-dimethylphenoxy)propyl)-6-(2-((dimethylamino)methyl)-4,6-dimethylpyrimidin-5-yl)-4-methyl-1-oxo-3,4-dihydropyrazino[1,2-a]indol-2(1H)-yl)-4-methoxy-1-methyl-1H-indole-2-carboxylic acid] the same measures were 280 nM and less than 0.2 nM.

`Cc1ccnc(Cn2cc(C(=O)O)c3cccc(N4C[C@@H](C)n5c(c(CCCOc6cc(C)c(Cl)c(C)c6)c6ccc(Cl)c(-c7c(C)nn(C)c7C)c65)C4=O)c32)c1` [Example 484, (R)-7-(7-Chloro-10-(3-(4-chloro-3,5-dimethylphenoxy)propyl)-4-methyl-1-oxo-6-(1,3,5-trimethyl-1H-pyrazol-4-yl)-3,4-dihydropyrazino[1,2-a]indol-2(1H)-yl)-1-((4-methylpyridin-2-yl)methyl)-1H-indole-3-carboxylic acid]: the GI50 in test [1] (setting [3]) is 310 nM. Besides, the Ki on Mcl-1 was less than 0.2 nM. For the compound `Cc1cc(OCCCc2c3n(c4c(-c5c(C)nn(C)c5C)c(Cl)ccc24)[C@H](C)CN(c2cc(OCC4CC4)cc4cc(C(=O)O)n(C)c24)C3=O)cc(C)c1Cl` [Example 485, (R)-7-(7-Chloro-10-(3-(4-chloro-3,5-dimethylphenoxy)propyl)-4-methyl-1-oxo-6-(1,3,5-trimethyl-1H-pyrazol-4-yl)-3,4-dihydropyrazino[1,2-a]indol-2(1H)-yl)-5-(cyclopropylmethoxy)-1-methyl-1H-indole-2-carboxylic acid], the GI50 in test [1] (setting [2]) is 410 nM. Besides, the Ki at Mcl-1 was found to be 0.35 nM. For `Cc1cc(OCCCc2c3n(c4c(-c5c(C)nn(C)c5C)c(Cl)ccc24)[C@H](C)CN(c2cc(NCCN4CCCC4)cc4c(C(=O)O)cn(C)c24)C3=O)cc(C)c1Cl` [Example 486, (R)-7-(7-Chloro-10-(3-(4-chloro-3,5-dimethylphenoxy)propyl)-4-methyl-1-oxo-6-(1,3,5-trimethyl-1H-pyrazol-4-yl)-3,4-dihydropyrazino[1,2-a]indol-2(1H)-yl)-1-methyl-5-((2-(pyrrolidin-1-yl)ethyl)amino)-1H-indole-3-carboxylic acid] the same measures were 2900 nM and 1.4 nM. For `Cc1cc(OCCCc2c3n(c4c(-c5c(C)nn(C)c5C)c(Cl)ccc24)[C@H](C)CN(c2cc(OCc4cccnc4)cc4cc(C(=O)O)n(C)c24)C3=O)cc(C)c1Cl` [Example 487, (R)-7-(7-Chloro-10-(3-(4-chloro-3,5-dimethylphenoxy)propyl)-4-methyl-1-oxo-6-(1,3,5-trimethyl-1H-pyrazol-4-yl)-3,4-dihydropyrazino[1,2-a]indol-2(1H)-yl)-1-methyl-5-(pyridin-3-ylmethoxy)-1H-indole-2-carboxylic acid] the same measures were 280 nM and 0.23 nM. Consider `Cc1cc(N2C[C@@H](C)n3c(c(CCCOc4cc(C)c(Cl)c(C)c4)c4ccc(Cl)c(-c5c(C)nn(C)c5C)c43)C2=O)c2c(c1)cc(C(=O)O)n2Cc1ccccn1` [Example 714, (P, R)-7-(7-chloro-10-(3-(4-chloro-3,5-dimethylphenoxy)propyl)-4-methyl-1-oxo-6-(1,3,5-trimethyl-1H-pyrazol-4-yl)-3,4-dihydropyrazino[1,2-a]indol-2(1H)-yl)-5-methyl-1-(pyridin-2-ylmethyl)-1H-indole-2-carboxylic acid], for which, on Mcl-1, the inhibitory constant (Ki) is less than 0.2 nM.
